Experimental data from patent publication US12653900B2, “Antibody drug conjugates comprising ecteinascidin derivatives” (PHARMA MAR, S.A., priority 2018, dated 2026).
Where “and” joins values, the source holds several entries; their conditions need not be identical. Equal entries are not always repeated. Where two headings read alike, the source gives them in different places.

Key:
[1] = tested on: SK-BR-3, HCC-1954, MDA-MB-231 and MCF-7 cells; assay: In vitro cytotoxicity across the HER2 breast cancer cell panel and HER2 selectivity; assay type: cell-based; details: Homo sapiens
Method: For SK-BR-3, HCC-1954, MDA-MB-231 and MCF-7 cells, a colorimetric assay using Sulforhodamine B (SRB) was adapted for quantitative measurement of cell growth and cytotoxicity, as described in V. Vichai and K. Kirtikara. Sulforhodamine B colorimetric assay for cytotoxicity screening. Nature Protocols, 2006, 1, 1112-1116. Briefly, cells were seeded in 96-well microtiter plates and allowed to stand for 24 hours in drug-free medium before treatment with vehicle alone or with the tested substances for 72 hours.
(§1) Cell survival was expressed as percentage of control, untreated cell survival.
Standard dose-response (DR) curves for 72 hours incubation with the tested substances were performed.

[2] = tested on: MDA-MB-231 (HER2−); assay: In vitro cytotoxicity of ADCs and related reagents, SRB assay; assay type: cell-based; details: Homo sapiens
Method: (§2) Sulforhodamine B colorimetric assay for cytotoxicity screening. […] Briefly, cells were seeded in 96-well microtiter plates and allowed to stand for 24 hours in drug-free medium before treatment with vehicle alone or with the tested substances for 72 hours.
as §1

[3] = tested on: SK-BR-3 (HER2+); assay: as above; assay type: cell-based; details: Homo sapiens
Method: as §2, §1

[4] = tested on: MCF-7 (HER2−); assay: as above; assay type: cell-based; details: Homo sapiens, MCF7
Method: as §2, §1

[5] = tested on: HCC-1954 (HER2+); assay: as above; assay type: cell-based; details: Homo sapiens, HCC1954
Method: as §2, §1

[6] = tested on: MDA-MB-231; assay: cells; assay type: cell-based; details: MDA-MB-231, 72 hours treatment, SRB
Description: (§3) Evaluation of Cytotoxic Activity Using the SRB and the MTT Colorimetric Assays

[7] = tested on: HT29; assay: cells; assay type: cell-based; details: HT29, 72 hours treatment, SRB
Description: as §3

[8] = tested on: A549; assay type: cell-based; details: A549, 72 hours treatment, SRB
Description: as §3

[9] = tested on: PSN1; assay type: cell-based; details: PSN1, 72 hours treatment, SRB
Description: as §3

[10] = tested on: HT-1080, NB 4, Raji and RPMI 8226 cells; assay: In vitro cytotoxicity across the CD13 cell panel and CD13 selectivity; assay type: cell-based, human; details: Homo sapiens, CD13 positive and negative cell lines
Description: as §1

[11] = tested on: HT-1080 (CD13+); assay: In vitro cytotoxicity of ADCs and related reagents, MTT assay; assay type: cell-based; details: Homo sapiens, read-out: IC50 HT-1080 (CD13 positive); HT-1080 cells; geometric mean of the IC50 values of three experiments
Description: as §1

[12] = tested on: Raji (CD13−); assay: as above; assay type: cell-based, human; details: Homo sapiens; Raji cells; geometric mean of the IC50 values of three experiments; read-out: IC50 Raji (CD13 negative)
Method: (§4) Briefly, cells were seeded in 96-well trays and treated as above and after 72 hours of exposure to the tested substances cellular viability was estimated from conversion of MTT (Sigma, St Louis, MO, USA) to its coloured reaction product, MTT-formazan, which was dissolved in DMSO to measure its absorbance at 540 nm in a microplate spectrophotometer.
as §1

[13] = tested on: RPMI 8226 (CD13−); assay: as above; assay type: cell-based, human; details: Homo sapiens, RPMI-8226; RPMI8226 cells; geometric mean of the IC50 values of three experiments; read-out: IC50 RPMI8226 (CD13 negative)
Method: as §4, §1

[14] = tested on: NB 4 (CD13+); assay: as above; assay type: cell-based, human; details: Homo sapiens; NB-4 cells; geometric mean of the IC50 values of three experiments; read-out: IC50 NB-4 (CD13 positive)
Method: as §4, §1

[15] = read-out: IC50 values, range over the four cell lines
[16] = read-out: geometric mean IC50 value across the whole cell panel
[17] = MDA-MB-231, HER2 negative, 72 hours, read-out: IC50
[18] = SK-BR-3, HER2 positive, 72 hours, read-out: IC50
[19] = HCC-1954, HER2 positive, 72 hours, read-out: IC50

In the case of `COc1c(C)cc2c(c1O)[C@@H]1[C@@H]3[C@@H]4SC[C@]5(N[C@@H](CNC(=O)OCc6ccc(NC(=O)[C@H](C)NC(=O)[C@@H](NC(=O)CCOCCOCCOCCOCCNC(=O)CCN7C(=O)C=CC7=O)C(C)C)cc6)Cc6c5[nH]c5ccccc65)C(=O)OC[C@@H](c5c6c(c(C)c(OC(C)=O)c54)OCO6)N3[C@@H](C#N)[C@H](C2)N1C` [DL 3], the IC50 [1, 15] is reported as 0.15 µg/mL to 0.28 µg/mL and 99.3 nM to 185 nM, the IC50 [1, 16] is reported as 0.2 µg/mL and 133 nM and the IC50 [2, 17] is reported as 0.15 µg/mL and 99.3 nM. For the same compound, the IC50 [3, 18] was 0.16 µg/mL and 106 nM, the IC50 ([4]; MCF-7, HER2 negative, 72 hours, read-out: IC50) was 0.279 µg/mL and 185 nM and the IC50 [5, 19] was 0.24 µg/mL and 159 nM.
`COc1ccc2[nH]c3c(c2c1)C[C@H](CN)N[C@]31CS[C@@H]2c3c(OC(C)=O)c(C)c4c(c3[C@H](COC1=O)N1[C@@H]2[C@H]2c3c(cc(C)c(OC)c3O)C[C@@H]([C@@H]1O)N2C)OCO4` [27-R] showed a TGI [6] of 5.41E-10 Molar, a TGI [7] of 5.53E-10 Molar and a TGI [8] of 3.93E-09 Molar. For the same compound, the TGI [9] was 1.17E-09 Molar.
With `COc1c(C)cc2c(c1O)[C@@H]1[C@@H]3[C@@H]4SC[C@]5(N[C@@H](CNC(=O)OCc6ccc(NC(=O)[C@H](CCCNC(N)=O)NC(=O)[C@@H](NC(=O)CCCCCN7C(=O)C=CC7=O)C(C)C)cc6)Cc6c5[nH]c5ccccc65)C(=O)OC[C@@H](c5c6c(c(C)c(OC(C)=O)c54)OCO6)N3[C@@H](O)[C@H](C2)N1C` [DL 6] the IC50 [1, 15] was 0.04 µg/mL to 0.3 µg/mL and 31 nM to 197 nM, the IC50 [1, 16] was 0.11 µg/mL and 78.9 nM and the IC50 ([2]; MDA-MB-231 cells, 72 hours incubation, read-out: IC50 MDA-MB-231 (HER2 negative)) was 0.0429 µg/mL and 31 nM. For the same compound, the IC50 ([3]; SK-BR-3 cells, 72 hours incubation, read-out: IC50 SK-BR-3 (HER2 positive)) was 0.0709 µg/mL and 51.3 nM, the IC50 ([4]; MCF-7 cells, 72 hours incubation, read-out: IC50 MCF-7 (HER2 negative)) was 0.273 µg/mL and 197 nM and the IC50 ([5]; HCC-1954 cells, 72 hours incubation, read-out: IC50 HCC-1954 (HER2 positive)) was 0.171 µg/mL and 124 nM.
For `COc1c(C)cc2c(c1O)[C@@H]1[C@@H]3[C@@H]4SC[C@]5(N[C@@H](CN)Cc6c5oc5ccccc65)C(=O)OC[C@@H](c5c6c(c(C)c(OC(C)=O)c54)OCO6)N3[C@@H](C#N)[C@H](C2)N1C` [46-R], the IC (TGI) ([6]; Homo sapiens) was 1.39 nM and the IC (TGI) ([7]; Homo sapiens, HT-29) was 1.39 nM.
For `COc1c(C)cc2c(c1O)[C@@H]1[C@@H]3[C@@H]4SC[C@]5(N[C@@H](CN)Cc6c5[nH]c5ccccc65)C(=O)OC[C@@H](c5c6c(c(C)c(OC(C)=O)c54)OCO6)N3[C@@H](O)[C@H](C2)N1C` [12-R], the IC50 [10, 15] was 0.0003 µg/mL to 0.0011 µg/mL and 0.421 nM to 1.4 nM, the IC50 [10, 16] was 0.0006 µg/mL and 0.78 nM and the IC50 [11] was 0.0011 µg/mL and 1.4 nM. For the same compound, the IC50 [12] was 0.00047 µg/mL and 0.6 nM, the IC50 [13] was 0.00083 µg/mL and 1.06 nM and the IC50 [14] was 0.00033 µg/mL and 0.421 nM. For the same compound, the IC50 [1, 15] was 0.0004 µg/mL to 0.0013 µg/mL and 0.562 nM to 1.62 nM, the IC50 [1, 16] was 0.00071 µg/mL and 0.906 nM and the IC50 [2, 17] was 0.000493 µg/mL and 0.629 nM. For the same compound, the IC50 [3, 18] was 0.000441 µg/mL and 0.562 nM and the IC50 [5, 19] was 0.00127 µg/mL and 1.62 nM.
